Measured values as given in ChEMBL document CHEMBL1152105, “Anthraquinones related to rhein inhibit glucose uptake into chondrocytes. A mechanism for anti-osteoarthritis drugs?” (1997).

Assay: Percent inhibition of glucose uptake into chondrocytes prepared from the metacarpophalageal joints of mature cow at concentration of 50 uM
Format: functional
Settings: Bos taurus

Going from `O=C1c2cccc(O)c2C(=O)c2c(O)cc(-c3nn[nH]n3)cc21` to `COc1cccc2c1C(=O)c1c(OC)cc(-c3nn[nH]n3)cc1C2=O`, the inhibition at 50 µM falls from 103% to 36.2%.

First: COc1ccc(OC)c2c1C(=O)c1ccc(-c3nn[nH]n3)cc1C2=O
Second: COc1ccc(OC)c2c1C(=O)c1ccc(C(=O)O)cc1C2=O
The inhibition at 50 µM of the first is higher: 81.8% for the first, 25.3% for the second.

Compared with `COc1cc(C(=O)O)c(OC)c2c1C(=O)c1ccccc1C2=O`, `O=C(O)c1cc(O)c2c(c1O)C(=O)c1ccccc1C2=O` is higher in inhibition at 50 µM: 14% for the first, 24.9% for the second.

First: CCOc1cccc2c1C(=O)c1c(OCC)cc(C(=O)O)cc1C2=O
Second: CCCOc1cccc2c1C(=O)c1c(OCCC)cc(C(=O)O)cc1C2=O
The inhibition at 50 µM of the first is lower: 18.5% for the first, 56.7% for the second.

Going from `COc1cccc2c1C(=O)c1c(OC)cc(C(=O)O)cc1C2=O` to `COc1cc(C(=O)O)cc2c1C(=O)c1c(OC)ccc(OC)c1C2=O`, the inhibition at 50 µM rises from -1.9% to 4.8%.

Compared with `CC(=O)Oc1ccc2c(c1)C(=O)c1cc(C(=O)O)ccc1C2=O`, `O=C(O)c1ccc2c(c1)C(=O)c1cc(O)ccc1C2=O` is higher in inhibition at 50 µM: 1.6% for the first, 16.9% for the second.

First: CCOc1cccc2c1C(=O)c1c(OCC)cc(-c3nn[nH]n3)cc1C2=O
Second: CCOc1ccc(OCC)c2c1C(=O)c1ccc(C(=O)O)cc1C2=O
The inhibition at 50 µM of the first is higher: 92% for the first, 37.7% for the second.

Going from `O=C(O)c1cc(O)c2c(c1)C(=O)c1c(O)ccc(O)c1C2=O` to `O=C(O)c1cc(O)c2c(c1)C(=O)c1cccc(O)c1C2=O` [RHEIN], the inhibition at 50 µM falls from 22.1% to 3%.

Compared with `CC(=O)Oc1ccc(OC(C)=O)c2c1C(=O)c1ccc(C(=O)O)cc1C2=O`, `Oc1cc(O)c2c(c1)O[C@H](c1ccc(O)c(O)c1)[C@@H](O)C2` [CIANIDANOL] is lower in inhibition at 50 µM: 14.8% for the first, 12.1% for the second.

`O=C(CCc1ccc(O)cc1)c1c(O)cc(O)cc1O[C@@H]1O[C@H](CO)[C@@H](O)[C@H](O)[C@H]1O` [PHLORIZIN] gave an inhibition at 50 µM of 11.9%.
